Assay results from the NIST ThermoML archive (doi:10.1016/j.jct.2005.03.012).

Assay: excess molar enthalpy (molar enthalpy of mixing); xn = mol fraction of the nth substance listed
Conditions: Liquid

CO [methanol] + O
Conditions | excess molar enthalpy [kcal/mol]
425.1 K, 10000 kPa, x1 = 0.8 | 0.0323
468.38 K, 10000 kPa, x1 = 0.4 | 0.119
468.72 K, 8500 kPa, x1 = 0.4 | 0.115
469.1 K, 10000 kPa, x1 = 0.6 | 0.114
469.29 K, 5000 kPa, x1 = 0.4 | 0.104
469.31 K, 8500 kPa, x1 = 0.6 | 0.11
469.39 K, 5000 kPa, x1 = 0.3 | 0.0932
469.49 K, 5000 kPa, x1 = 0.5 | 0.104
469.5 K, 10000 kPa, x1 = 0.2 | 0.0801
469.66 K, 8500 kPa, x1 = 0.2 | 0.0793
469.81 K, 5000 kPa, x1 = 0.2 | 0.0717
469.91 K, 5000 kPa, x1 = 0.6 | 0.096
470.63 K, 5000 kPa, x1 = 0.7 | 0.0803
470.65 K, 10000 kPa, x1 = 0.4 | 0.122
470.78 K, 10000 kPa, x1 = 0.6 | 0.115
470.8 K, 10000 kPa, x1 = 0.8 | 0.0707
471.01 K, 8500 kPa, x1 = 0.4 | 0.118
471.06 K, 8500 kPa, x1 = 0.8 | 0.0689
471.22 K, 5000 kPa, x1 = 0.1 | 0.0392
471.24 K, 5000 kPa, x1 = 0.4 | 0.104
471.34 K, 5000 kPa, x1 = 0.8 | 0.057
471.36 K, 5000 kPa, x1 = 0.5 | 0.104
471.45 K, 5000 kPa, x1 = 0.3 | 0.0941
471.49 K, 8500 kPa, x1 = 0.6 | 0.113
471.54 K, 8500 kPa, x1 = 0.2 | 0.0812
471.91 K, 5000 kPa, x1 = 0.6 | 0.0953
472.04 K, 5000 kPa, x1 = 0.7 | 0.0796
472.16 K, 10000 kPa, x1 = 0.8 | 0.0715
472.23 K, 5000 kPa, x1 = 0.9 | 0.0296
472.28 K, 5000 kPa, x1 = 0.8 | 0.0561
472.49 K, 10000 kPa, x1 = 0.2 | 0.0832
473.11 K, 5000 kPa, x1 = 0.2 | 0.0722
473.15 K, 5000 kPa, x1 = 0.1 | 0.0395
473.15 K, 5000 kPa, x1 = 0.2 | 0.0719
473.15 K, 5000 kPa, x1 = 0.3 | 0.0932
473.15 K, 5000 kPa, x1 = 0.4 | 0.103
473.15 K, 5000 kPa, x1 = 0.5 | 0.103
473.15 K, 5000 kPa, x1 = 0.6 | 0.095
473.15 K, 5000 kPa, x1 = 0.7 | 0.0788
473.15 K, 5000 kPa, x1 = 0.8 | 0.0555
473.15 K, 5000 kPa, x1 = 0.9 | 0.0298
473.15 K, 8500 kPa, x1 = 0.2 | 0.0818
473.15 K, 8500 kPa, x1 = 0.4 | 0.119
473.15 K, 8500 kPa, x1 = 0.6 | 0.113
473.15 K, 8500 kPa, x1 = 0.8 | 0.0696
473.15 K, 10000 kPa, x1 = 0.2 | 0.0827
473.15 K, 10000 kPa, x1 = 0.4 | 0.124
473.15 K, 10000 kPa, x1 = 0.6 | 0.117
473.15 K, 10000 kPa, x1 = 0.8 | 0.0735
473.17 K, 5000 kPa, x1 = 0.9 | 0.0285
473.36 K, 5000 kPa, x1 = 0.1 | 0.0397
473.78 K, 8500 kPa, x1 = 0.8 | 0.0702
474.92 K, 5000 kPa, x1 = 0.1 | 0.0401
474.92 K, 5000 kPa, x1 = 0.2 | 0.0721
474.92 K, 5000 kPa, x1 = 0.3 | 0.0937
474.92 K, 5000 kPa, x1 = 0.4 | 0.103
474.92 K, 5000 kPa, x1 = 0.5 | 0.102
474.92 K, 5000 kPa, x1 = 0.6 | 0.0941
474.92 K, 5000 kPa, x1 = 0.7 | 0.0778
474.92 K, 5000 kPa, x1 = 0.8 | 0.0536
474.92 K, 5000 kPa, x1 = 0.9 | 0.0277
475.17 K, 10000 kPa, x1 = 0.2 | 0.0854
475.17 K, 10000 kPa, x1 = 0.4 | 0.126
475.17 K, 10000 kPa, x1 = 0.6 | 0.118
475.17 K, 10000 kPa, x1 = 0.8 | 0.0755
475.47 K, 8500 kPa, x1 = 0.2 | 0.083
475.47 K, 8500 kPa, x1 = 0.4 | 0.121
475.47 K, 8500 kPa, x1 = 0.6 | 0.115
475.47 K, 8500 kPa, x1 = 0.8 | 0.0705
493.71 K, 10000 kPa, x1 = 0.4 | 0.128
494.59 K, 10000 kPa, x1 = 0.2 | 0.0893
494.68 K, 10000 kPa, x1 = 0.6 | 0.118
495.72 K, 10000 kPa, x1 = 0.4 | 0.125
496.09 K, 10000 kPa, x1 = 0.2 | 0.0884
496.33 K, 10000 kPa, x1 = 0.8 | 0.0702
497.18 K, 10000 kPa, x1 = 0.6 | 0.116
498.15 K, 8500 kPa, x1 = 0.1 | 0.0443
498.15 K, 8500 kPa, x1 = 0.2 | 0.0795
498.15 K, 8500 kPa, x1 = 0.3 | 0.0979
498.15 K, 8500 kPa, x1 = 0.4 | 0.106
498.15 K, 8500 kPa, x1 = 0.5 | 0.103
498.15 K, 8500 kPa, x1 = 0.6 | 0.0938
498.15 K, 8500 kPa, x1 = 0.7 | 0.0758
498.15 K, 8500 kPa, x1 = 0.8 | 0.0522
498.15 K, 8500 kPa, x1 = 0.9 | 0.0256
498.15 K, 10000 kPa, x1 = 0.2 | 0.0875
498.15 K, 10000 kPa, x1 = 0.4 | 0.124
498.15 K, 10000 kPa, x1 = 0.6 | 0.114
498.15 K, 10000 kPa, x1 = 0.8 | 0.0689
498.93 K, 10000 kPa, x1 = 0.8 | 0.0687
500.09 K, 8500 kPa, x1 = 0.1 | 0.0446
500.09 K, 8500 kPa, x1 = 0.2 | 0.0768
500.09 K, 8500 kPa, x1 = 0.3 | 0.0941
500.09 K, 8500 kPa, x1 = 0.4 | 0.101
500.09 K, 8500 kPa, x1 = 0.5 | 0.0978
500.09 K, 8500 kPa, x1 = 0.6 | 0.0868
500.09 K, 8500 kPa, x1 = 0.7 | 0.0683
500.09 K, 8500 kPa, x1 = 0.8 | 0.0466
500.09 K, 8500 kPa, x1 = 0.9 | 0.0222
500.24 K, 10000 kPa, x1 = 0.2 | 0.087
500.24 K, 10000 kPa, x1 = 0.4 | 0.122
500.24 K, 10000 kPa, x1 = 0.6 | 0.112
500.24 K, 10000 kPa, x1 = 0.8 | 0.0679
504.64 K, 10000 kPa, x1 = 0.4 | 0.111
